Assay results taken from the NIST ThermoML archive (doi:10.1021/acs.jced.7b00035).
Values joined by “and” are separate entries in the source; they are usually repeats but may differ in a detail not shown here. Equal values may be shown once. Numbers after ± are expanded uncertainties.

What was measured:
[1] = xn = mol fraction of the nth substance listed; settings: 100 kPa, Liquid, Vibrating tube method
[2] = excess molar enthalpy (molar enthalpy of mixing); xn = mol fraction of the nth substance listed; settings: 100 kPa, Liquid, Flow calorimetry

CC(=O)C(C)C [3-methyl-2-butanone] + O
Settings | excess molar enthalpy, [2] | mass density, [1]
288.15 K, x1 = 0.000837 | -0.0025 kcal/mol | 998.559 ± 0.034 kg/m3 and 998.558 ± 0.034 kg/m3
288.15 K, x1 = 0.001672 | -0.00495 kcal/mol and -0.00497 kcal/mol | 998.026 ± 0.036 kg/m3 and 998.025 ± 0.036 kg/m3
288.15 K, x1 = 0.002505 | -0.00739 ± 0.000263 kcal/mol | 997.502 ± 0.038 kg/m3
288.15 K, x1 = 0.002506 | -0.0074 ± 0.000263 kcal/mol | 997.502 ± 0.038 kg/m3
288.15 K, x1 = 0.003337 | -0.00974 ± 0.000335 kcal/mol | 996.996 ± 0.067 kg/m3
288.15 K, x1 = 0.003339 | -0.00976 ± 0.000335 kcal/mol | 996.993 ± 0.04 kg/m3
288.15 K, x1 = 0.004168 | -0.0121 ± 0.000359 kcal/mol | 996.494 ± 0.043 kg/m3
288.15 K, x1 = 0.004171 | -0.0121 ± 0.000359 kcal/mol | 996.488 ± 0.043 kg/m3
288.15 K, x1 = 0.004998 | -0.0145 ± 0.00043 kcal/mol | 995.988 ± 0.046 kg/m3
288.15 K, x1 = 0.005001 | -0.0144 ± 0.00043 kcal/mol | 996 ± 0.046 kg/m3
298.15 K, x1 = 0.000836 | -0.00207 kcal/mol | 996.47 ± 0.035 kg/m3
298.15 K, x1 = 0.001671 | -0.00411 ± 0.00022 kcal/mol | 995.897 ± 0.037 kg/m3
298.15 K, x1 = 0.001672 | -0.00411 ± 0.00022 kcal/mol | 995.899 ± 0.037 kg/m3
298.15 K, x1 = 0.002505 | -0.00612 kcal/mol and -0.00606 kcal/mol | 995.337 ± 0.039 kg/m3 and 995.348 ± 0.039 kg/m3
298.15 K, x1 = 0.003337 | -0.00802 kcal/mol and -0.00799 kcal/mol | 994.799 ± 0.042 kg/m3 and 994.805 ± 0.042 kg/m3
298.15 K, x1 = 0.004166 | -0.00989 ± 0.000335 kcal/mol | 994.261 ± 0.045 kg/m3
298.15 K, x1 = 0.004168 | -0.00994 ± 0.000335 kcal/mol | 994.254 ± 0.045 kg/m3
298.15 K, x1 = 0.004994 | -0.0118 ± 0.000359 kcal/mol | 993.729 ± 0.063 kg/m3
298.15 K, x1 = 0.004998 | -0.0118 ± 0.000359 kcal/mol | 993.722 ± 0.063 kg/m3
308.15 K, x1 = 0.000836 | -0.00164 ± 0.000198 kcal/mol | 993.424 ± 0.036 kg/m3
308.15 K, x1 = 0.000837 | -0.00163 ± 0.000198 kcal/mol | 993.426 ± 0.036 kg/m3
308.15 K, x1 = 0.001672 | -0.00322 kcal/mol and -0.00323 kcal/mol | 992.827 ± 0.038 kg/m3 and 992.824 ± 0.038 kg/m3
308.15 K, x1 = 0.002504 | -0.00478 ± 0.000229 kcal/mol | 992.235 ± 0.041 kg/m3
308.15 K, x1 = 0.002506 | -0.00482 ± 0.000229 kcal/mol | 992.224 ± 0.041 kg/m3
308.15 K, x1 = 0.003336 | -0.00632 ± 0.000263 kcal/mol | 991.647 ± 0.044 kg/m3
308.15 K, x1 = 0.00334 | -0.00634 ± 0.000263 kcal/mol | 991.646 ± 0.044 kg/m3
308.15 K, x1 = 0.004167 | -0.00783 ± 0.000287 kcal/mol | 991.064 ± 0.047 kg/m3
308.15 K, x1 = 0.004171 | -0.00781 ± 0.000287 kcal/mol | 991.067 ± 0.047 kg/m3
308.15 K, x1 = 0.005001 | -0.00926 ± 0.000311 kcal/mol | 990.494 ± 0.063 kg/m3
318.15 K, x1 = 0.000836 | -0.00121 kcal/mol | 989.576 ± 0.038 kg/m3 and 989.578 ± 0.038 kg/m3
318.15 K, x1 = 0.00167 | -0.00239 ± 0.000206 kcal/mol | 988.947 ± 0.04 kg/m3
318.15 K, x1 = 0.001671 | -0.00239 ± 0.000206 kcal/mol | 988.945 ± 0.04 kg/m3
318.15 K, x1 = 0.002338 | -0.0033 ± 0.000213 kcal/mol | 988.447 ± 0.042 kg/m3
318.15 K, x1 = 0.002505 | -0.00353 ± 0.000215 kcal/mol | 988.318 ± 0.043 kg/m3
318.15 K, x1 = 0.003336 | -0.00465 ± 0.000225 kcal/mol | 987.702 ± 0.053 kg/m3
318.15 K, x1 = 0.003337 | -0.00465 ± 0.000227 kcal/mol | 987.696 ± 0.046 kg/m3
318.15 K, x1 = 0.004167 | -0.00571 ± 0.000263 kcal/mol | 987.091 ± 0.07 kg/m3
318.15 K, x1 = 0.004168 | -0.00573 ± 0.000239 kcal/mol | 987.083 ± 0.05 kg/m3
318.15 K, x1 = 0.004997 | -0.00677 ± 0.000263 kcal/mol | 986.477 ± 0.054 kg/m3
318.15 K, x1 = 0.004998 | -0.00677 ± 0.000263 kcal/mol | 986.481 ± 0.053 kg/m3
